Assay results as given in patent publication US8518700B2, “Composition for reprogramming somatic cells to generate induced pluripotent stem cells, comprising Bmi1 and low molecular weight substance, and method for generating induced pluripotent stem cells using the same” (Korea University Research and Business Foundation, priority 2010, dated 2013).

Tests used:
Type in all cases: cell-based
[1] = test system: Bmi1-transduced mouse somatic cells (neurosphere-like cells); test: Reprogramming of neurosphere-like cells from Bmi1-transduced mouse somatic cells (EGF-free neural stem cell condition) into iPS cells; details: 1 μM BIX01294 and 0.5 μM RG108 together; one week; condition used for mouse embryonic stem cells
Description: (§1) Mouse somatic cells, in detail, mouse fibroblasts were employed to generate embryonic stem cell-like cells. Embryos were taken from CF1 strain mice on embryonic day 13.5. Cells were cultured in DMEM (high glucose, w/o sodium pyruvate) supplemented with 10% FBS (Fetal bovine serum), 0.1 mM non-essential amino acid, 1% penicillin/streptomycin and 0.1 mM β-mercaptoethanol in tissue culture flasks, after which fibroblasts at the 3rd passage were seeded at a density of 2×10^5 cells/well into 6-well plates.
(§2) For use in gene transfer, retrovirus particles were prepared from the PT67 packaging cell line. In this context, a pBabe puro Bmi1 (from Dr. G. P. Dimri, Evanston Northwestern Healthcare Research Institute, Feinberg School of Medicine, Northwestern University, Evanston, Ill. 60201, USA), constructed by inserting a human Bmi1 gene (NCBI accession No. L13689) into a pBabe puro vector, was transfected into a PT67 packaging cell line (Clontech) with the aid of Turbofect (Fermentas), followed by drug selection with puromycine (3 μg/ml, BD bioscience). The PT67 packaging cell line allowed the production of high-titer viruses capable of infecting a broad range of mammalian host cells.
(§3) The expression of each gene was monitored with RT-PCR. […]

[2] = test system: Bmi1-transduced mouse somatic cells (Oct4-positive cells); test: Reprogramming of Oct4-positive Bmi1-transduced mouse somatic cells into iPS cells by treatment with low molecular weight substances; details: 0.5 μM PD0325901 and 3 μM CHIR99021 together; culture conditions of mouse embryonic stem cells
Description: as §1, §2, §3

[3] = test system: Bmi1-transduced mouse somatic cells (neurosphere-like cells); test: Reprogramming of neurosphere-like cells from Bmi1-transduced mouse somatic cells (neural stem cell condition with bFGF and EGF) into iPS cells; details: 2 mM VPA; one week; condition used for mouse embryonic stem cells
Description: as §1, §2, §3

| SMILES | Reprogramming into iPS cells (BC-iPS 2) [1] | Reprogramming into iPS cells (BC-iPS 1) [2] | further results |
| --- | --- | --- | --- |
| COc1cc2nc(N3CCCN(C)CC3)nc(NC3CCN(Cc4ccccc4)CC3)c2cc1OC [BIX01294, 2-(Hexahydro-4-methyl-1H-1,4-diazepin-1-yl)-6,7-dimethoxy-N-[1-(phenylmethyl)-4-piperidinyl]4-quinazolinamine] | establish iPS cells |  |  |
| Cc1c[nH]c(-c2cnc(NCCNc3ccc(C#N)cn3)nc2-c2ccc(Cl)cc2Cl)n1 [CHIR99021] |  | establish induced stem cells |  |
| O=C(O)[C@H](Cc1c[nH]c2ccccc12)N1C(=O)c2ccccc2C1=O [RG108, N-Phthalyl-L-tryptophan] | establish iPS cells |  |  |
| O=C(NOC[C@H](O)CO)c1ccc(F)c(F)c1Nc1ccc(I)cc1F [PD0325901] |  | establish induced stem cells |  |
| CCCC(CCC)C(=O)O [VPA, 2-propylenepentanoic acid] |  |  | Reprogramming into iPS cells [3]: iPS cells were established |
